Measurements: US20250346600A1, “TRICYCLIC DERIVATIVES AND RELATED USES” (MOMA Therapeutics, Inc., priority 2023, published 2025)
Where two headings read alike, the source gives them in different places.

Legend:
[1] = biological target: T1, Full length WRN protein (aa 2-1432) (Homo sapiens (Human), UniProt Q14191); experiment: WRN ATPase ADP-Glo biochemical assay, Assay Format A (10 μM ATP); settings: 0.25 nM WRN, 100 nM C6.18 ssDNA, 30 min preincubation, read-out: ATPase ADPGlo AC50 (uM)- Assay Format A
T1 sequence (Q14191 2-1432): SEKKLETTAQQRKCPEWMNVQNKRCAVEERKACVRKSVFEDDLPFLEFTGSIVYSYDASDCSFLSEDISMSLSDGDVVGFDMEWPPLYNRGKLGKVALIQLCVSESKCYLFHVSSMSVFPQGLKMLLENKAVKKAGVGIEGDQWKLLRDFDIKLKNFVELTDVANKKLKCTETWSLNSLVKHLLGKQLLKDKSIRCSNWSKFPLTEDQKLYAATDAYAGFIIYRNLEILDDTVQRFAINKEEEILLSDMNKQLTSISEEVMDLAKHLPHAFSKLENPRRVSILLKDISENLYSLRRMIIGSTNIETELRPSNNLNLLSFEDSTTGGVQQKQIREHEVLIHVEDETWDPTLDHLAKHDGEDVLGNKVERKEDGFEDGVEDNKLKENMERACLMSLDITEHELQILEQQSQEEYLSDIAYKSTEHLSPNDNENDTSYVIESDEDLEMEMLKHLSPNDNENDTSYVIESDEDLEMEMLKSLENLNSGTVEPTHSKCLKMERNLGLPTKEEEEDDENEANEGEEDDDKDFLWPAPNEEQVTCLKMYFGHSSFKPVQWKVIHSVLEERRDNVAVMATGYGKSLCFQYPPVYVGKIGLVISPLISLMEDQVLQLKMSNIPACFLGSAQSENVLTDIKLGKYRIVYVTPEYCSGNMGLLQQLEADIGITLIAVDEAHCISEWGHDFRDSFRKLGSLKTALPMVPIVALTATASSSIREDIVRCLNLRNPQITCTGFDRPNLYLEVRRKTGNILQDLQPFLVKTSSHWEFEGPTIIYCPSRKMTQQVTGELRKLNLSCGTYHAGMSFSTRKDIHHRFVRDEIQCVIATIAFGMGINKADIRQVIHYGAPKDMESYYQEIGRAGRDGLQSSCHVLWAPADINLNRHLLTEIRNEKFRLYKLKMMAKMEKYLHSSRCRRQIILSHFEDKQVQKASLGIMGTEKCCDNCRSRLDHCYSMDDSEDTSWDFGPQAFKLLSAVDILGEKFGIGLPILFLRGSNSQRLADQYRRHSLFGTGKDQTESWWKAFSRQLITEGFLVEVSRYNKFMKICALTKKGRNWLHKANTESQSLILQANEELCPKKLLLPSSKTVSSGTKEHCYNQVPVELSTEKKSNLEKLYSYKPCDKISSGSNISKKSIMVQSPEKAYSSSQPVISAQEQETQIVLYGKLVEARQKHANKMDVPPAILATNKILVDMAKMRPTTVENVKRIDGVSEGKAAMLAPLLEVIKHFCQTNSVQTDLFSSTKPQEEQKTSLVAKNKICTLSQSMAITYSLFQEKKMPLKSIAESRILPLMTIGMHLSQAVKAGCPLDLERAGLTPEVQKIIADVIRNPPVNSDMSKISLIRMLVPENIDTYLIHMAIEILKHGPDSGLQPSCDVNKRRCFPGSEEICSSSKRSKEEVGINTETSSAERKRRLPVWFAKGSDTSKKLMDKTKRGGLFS
Procedure, shortened: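 ADP-Glo luminescence measured hydrolysis of ATP by purified, baculovirus-expressed N-terminally tagged full-length WRN. Enzyme (0.5 nM) was preincubated 30 min with compound, then 200 nM ssDNA C6.18 plus 20 μM ATP were added (pre-mix levels) for 30 min at RT. IC50s come from four-parameter fits, geometric mean of at least two trials.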

[2] = biological target: T1, Full length WRN protein (aa 2-1432); experiment: WRN ATPase ADP-Glo biochemical assay, Assay Format B (100 μM ATP); settings: 0.25 nM WRN, 100 nM C6.18 ssDNA, 60 min preincubation, read-out: ATPase ADPGlo AC50 (uM)- Assay Format B
[3] = test system: HCT116 cells; experiment: HCT116 (MSI) 7 day viability, CellTiter Glo; format: cell-based; settings: 7 days, read-out: HCT116 (MSI) Viability 7 Day Abs AC50
Procedure, shortened: (§1)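 For each line, compound dilution series (3-fold, 10 points) met a defined seeding density—HCT116 50, HT29 500 cells/well—followed by 7 days at 37 °C. Luminescent ATP signal, background-corrected with no-cell wells, gave four-parameter logistic IC50s.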

[4] = test system: HT29 cells; experiment: HT29 (MSS) 7 day viability, CellTiter Glo; format: cell-based; settings: 7 days, read-out: HT29 (MSS) Viability 7 Day CTGAbs AC50
Procedure, shortened: as §1

SMILES	AC50 [1]	AC50 [2]	AC50 ([3]; Homo sapiens, HCT-116, 168 h)	AC50 ([4]; Homo sapiens, HT-29, 168 h)	AC50 [3]	AC50 [4]
C=CC(=O)N1CCc2nn(-c3ccc(C(C)C)cc3O)c3c2C(C1)N(C(=O)c1cnc(C(F)(F)F)c(O)c1)CC3 (centres unmarked) [Compound 21, 1-(2-(2-hydroxy-4-isopropylphenyl)-5-(5-hydroxy-6-(trifluoromethyl)nicotinoyl)-2,3,4,5,5a,6,8,9-octahydro-7H-1,2,5,7-tetraazabenzo[cd]azulen-7-yl)prop-2-en-1-one]	< 0.0015 µM	0.005 to 0.015 µM	1 to 100 nM	> 3000 nM	–	–
C=CC(=O)N1CCc2nn(-c3ccc(C4CC4)cc3)c3c2C(C1)N(C(=O)c1cnc(C(F)(F)F)c(C#N)c1)CC3 (centres unmarked) [Compound 112, 5-(7-acryloyl-2-(4-cyclopropylphenyl)-3,4,5,5a,6,7,8,9-octahydro-2H-1,2,5,7-tetraazabenzo[cd]azulene-5-carbonyl)-2-(trifluoromethyl)nicotino nitrile]	0.005 to 0.015 µM	> 0.055 µM	100 to 250 nM	> 3000 nM	–	–
C=CC(=O)N1CCc2nn(-c3ccc(C4CCC4)cc3)c3c2C(C1)N(C(=O)c1cnc(C(F)(F)F)c(O)c1)CC3 (centres unmarked) [Compound 26, 1-(2-(4-cyclobutylphenyl)-5-(5-hydroxy-6-(trifluoromethyl)nicotinoyl)-2,3,4,5,5a,6,8,9-octahydro-7H-1,2,5,7-tetraazabenzo[cd]azulen-7-yl)prop-2-en-1-one]	< 0.0015 µM	0.005 to 0.015 µM	1 to 100 nM	> 3000 nM	–	–
CS(=O)(=O)/C=C/CN1CCc2nn(-c3ccc(C4CC4)cc3O)c3c2C(C1)N(C(=O)c1cnc(C(F)(F)F)cc1N)CC3 (centres unmarked) [Compound 257, (4-amino-6-(trifluoromethyl)pyridin-3-yl)(2-(4-cyclopropyl-2-hydroxyphenyl)-7-(3-(methylsulfonyl)allyl)-3,4,6,7,8,9-hexahydro-2H-1,2,5,7-tetraazabenzo[cd]azulen-5(5aH)-yl)methanone]	> 0.055 µM	> 0.055 µM	> 1000 nM	> 3000 nM	–	–
C=CC(=O)N1CCc2nn(-c3ccc(C4CCC4)cc3O)c3c2C(C1)N(C(=O)c1ccc(OC(F)(F)F)cc1)CC3 (centres unmarked) [Compound 107, 1-(2-(4-cyclobutyl-2-hydroxyphenyl)-5-(4-(trifluoromethoxy)benzoyl)-2,3,4,5,5a,6,8,9-octahydro-7H-1,2,5,7-tetraazabenzo[cd]azulen-7-yl)prop-2-en-1-one]	0.005 to 0.015 µM	0.015 to 0.055 µM	100 to 250 nM	> 3000 nM	–	–
C=CC(=O)N1CCc2nn(-c3ccc(C(C)C)cc3)c3c2C(C1)N(C(=O)c1ncc(Br)c2[nH]cnc12)CC3 (centres unmarked) [Compound 10, 1-(5-(7-bromo-1H-imidazo[4,5-c]pyridine-4-carbonyl)-2-(4-isopropylphenyl)-2,3,4,5,5a,6,8,9-octahydro-7H-1,2,5,7-tetraazabenzo[cd]azulen-7-yl)prop-2-en-1-one]	< 0.0015 µM	0.015 to 0.055 µM	1 to 100 nM	> 3000 nM	–	–
C=CC(=O)N1CCc2nn(-c3ccc(C(C)C)cc3)c3c2C(C1)N(C(=O)c1ccc(Br)c(NCC(F)(F)F)c1)CC3 (centres unmarked) [Compound 104, 1-(5-(4-bromo-3-((2,2,2-trifluoroethyl)amino)benzoyl)-2-(4-isopropylphenyl)-2,3,4,5,5a,6,8,9-octahydro-7H-1,2,5,7-tetraazabenzo[cd]azulen-7-yl)prop-2-en-1-one]	0.005 to 0.015 µM	> 0.055 µM	1 to 100 nM	> 3000 nM	–	–
C=CC(=O)N1CC(C)Oc2nn(-c3ccc(C(C)C)cc3)c3c2C(C1)N(C(=O)c1ccc(Br)c2[nH]cnc12)CC3 (centres unmarked) [Compound 53, 1-(5-(7-bromo-1H-benzo[d]imidazole-4-carbonyl)-2-(4-isopropylphenyl)-9-methyl-2,3,4,5,5a,6,8,9-octahydro-7H-10-oxa-1,2,5,7-tetraazacycloocta[cd]inden-7-yl)prop-2-en-1-one]	0.015 to 0.055 µM	> 0.055 µM	–	–	500 to 1000 nM	> 3000 nM
C=CC(=O)N1CCc2nn(-c3ccc(C4CC4)cc3O)c3c2C(C1)N(C(=O)c1nnc(C(F)(F)F)cc1N)CC3 (centres unmarked) [Compound 248, 1-(5-(4-amino-6-(trifluoromethyl)pyridazine-3-carbonyl)-2-(4-cyclopropyl-2-hydroxyphenyl)-2,3,4,5,5a,6,8,9-octahydro-7H-1,2,5,7-tetraazabenzo[cd]azulen-7-yl)prop-2-en-1-one]	< 0.0015 µM	0.0015 to 0.005 µM	1 to 100 nM	> 3000 nM	–	–
C=CC(=O)N1CCc2nn(-c3ccc(C4CCC4)cc3O)c3c2C(C1)N(C(=O)c1ccc(C(F)(F)F)c2[nH]ncc12)CC3 (centres unmarked) [Compound 97, 1-(2-(4-cyclobutyl-2-hydroxyphenyl)-5-(7-(trifluoromethyl)-1H-indazole-4-carbonyl)-2,3,4,5,5a,6,8,9-octahydro-7H-1,2,5,7-tetraazabenzo[cd]azulen-7-yl)prop-2-en-1-one]	< 0.0015 µM	0.005 to 0.015 µM	1 to 100 nM	> 3000 nM	–	–
C=CC(=O)N1CC(OC)c2nn(-c3ccc(C4CCC4)cc3)c3c2C(C1)N(C(=O)c1cnc(C(F)(F)F)c(O)c1)CC3 (centres unmarked) [Compound 156, 1-(2-(4-cyclobutylphenyl)-5-(5-hydroxy-6-(trifluoromethyl)nicotinoyl)-9-methoxy-2,3,4,5,5a,6,8,9-octahydro-7H-1,2,5,7-tetraazabenzo[cd]azulen-7-yl)prop-2-en-1-one]	0.0015 to 0.005 µM	0.005 to 0.015 µM	1 to 100 nM	> 3000 nM	–	–
C=CC(=O)N1CCc2nn(-c3ccc(C4CCC4)cc3O)c3c2C(C1)N(C(=O)c1ccc(SC(F)(F)F)nc1)CC3 (centres unmarked) [Compound 157, 1-(2-(4-cyclobutyl-2-hydroxyphenyl)-5-(6-((trifluoromethyl)thio)nicotinoyl)-2,3,4,5,5a,6,8,9-octahydro-7H-1,2,5,7-tetraazabenzo[cd]azulen-7-yl)prop-2-en-1-one]	< 0.0015 µM	0.005 to 0.015 µM	1 to 100 nM	> 3000 nM	–	–
C=CC(=O)N1CCc2nn(-c3ccc(C4CC4)cc3)c3c2C(C1)N(C(=O)c1ccc(C#N)c2[nH]cnc12)CC3 (centres unmarked) [Compound 18, 4-(7-acryloyl-2-(4-cyclopropylphenyl)-3,4,5,5a,6,7,8,9-octahydro-2H-1,2,5,7-tetraazabenzo[cd]azulene-5-carbonyl)-1H-benzo[d]imidazole-7-carbonitrile]	0.0015 to 0.005 µM	0.015 to 0.055 µM	1 to 100 nM	> 3000 nM	–	–
C=C(F)C(=O)N1CCc2nn(-c3ccc(C(C)C)cc3)c3c2C(C1)N(C(=O)c1ccc(Br)c2[nH]cnc12)CC3 (centres unmarked) [Compound 17, 1-(5-(7-bromo-1H-benzo[d]imidazole-4-carbonyl)-2-(4-isopropylphenyl)-2,3,4,5,5a,6,8,9-octahydro-7H-1,2,5,7-tetraazabenzo[cd]azulen-7-yl)-2-fluoroprop-2-en-1-one]	0.015 to 0.055 µM	> 0.055 µM	> 1000 nM	> 3000 nM	–	–
